Measurements from patent US5593698A, “Suppression of proliferative response and induction of tolerance with polymorphic class II MHC allopeptides” (Autoimmune, Inc., priority 1993, dated 1997).

Tested on: LEW rats
Test: Delayed Type Hypersensitivity (DTH) response after immunization with allopeptides
Type: in vivo, rat
Conditions: LEW rats immunized in foot pad with 12.5 μg of one fragment and CFA; FIG. 5
Description: 4. Delayed Type Hypersensitivity (DTH) Response: LEW rats, used as responders, were immunized subcutaneously in the foot pad with 100 μg of the mixture of four RT1.B^u (50 μg) and four RT1.D^u (50 μg) peptides in complete Freund's adjuvant (12.5 μg of each peptide). These animals were challenged subcutaneously 2 weeks later in one ear with 10 μg of the peptide mixture and in the other ear with freshly prepared and irradiated (3000 Rads) splenocytes (10×10^6) from WF (RT1^u), syngeneic LEW (RT1^1), or third party BN (RT1^n). The DTH responses were measured with micrometer caliper (Mitutoyo, Japan) by a blinded observer as the delta ear thickness before and 2 days after the challenge (inches ×10^-2). Experiments were performed using 5 animals in each study group. P values were calculated using the student t-test.
These experiments investigate whether, in addition to polymorphism, the native location of the allopeptide, β-pleat vs. α-helix, may be an important determinant of immunogenicity and tolerogenicity in vivo. The immunogenicity and tolerogenicity of the individual allopeptide fragments were investigated. LEW rats, used as responders, were immunized subcutaneously in the foot pad with 12.5 μg of one of the four RT1.D (1-25, 20-44, 39-64, and 60-84) and four RT1.B (1-25, 20-44, 39-64, and 68-92) allopeptide fragments and CFA. DTH responses were then determined for each of the peptide fragments. […] In FIG. 5, "RT1D mix" and "RT1B mix" refers to animals immunized with a mixture of all four allopeptides. In FIG. 5 solid bars represent immunization with cells, hatched bars represent immunization with peptides. Bars represent the change in ear thickness in […] (mean±SEM).

Question: With “RT1.D1: RT1.D allopeptide fragment 1-25, β-pleat (RDPTPRFLGYLKPECHFYNGTNRVR)” as the substance, how does the “Immunogenicity of individual allopeptide fragments by DTH response” value (“Immunogenicity” for short) read?
Answer: immunogenic

Question: “RT1.B2: RT1.B allopeptide fragment 20-44, β-pleat (GTQRIRNVIRYIYNREEYLRYDSDV)” was tested. Which “Immunogenicity” value did it give?
Answer: immunogenic

Question: With “RT1.B1: RT1.B allopeptide fragment 1-25, β-pleat (QRLRRDFLVQFKPYCYFTNGTQRIR)” as the substance, how does the “Immunogenicity” value read?
Answer: immunogenic

Question: How did the “Immunogenicity” value turn out when “RT1.D2: RT1.D allopeptide fragment 20-44, β-pleat (GTNRVRLLARLIYNREEYARFDSDV)” was run?
Answer: immunogenic
